Measurements taken from ChEMBL document CHEMBL1159320, “Cytotoxic effect (on tumor cells) and in vitro antiviral activity against herpes simplex virus of synthetic spongiane diterpenes” (J Nat Prod, 2002).
≈ marks a conversion by molar mass, not a printed value. Calls of active or inactive are those of the source. The rule behind the calls is not given here.

Tests used:
Human alphaherpesvirus 2 = test: Antiviral activity against HSV2 infected in human HeP2 ells; format: functional
Vero = test: Cytotoxicity against african green monkey Vero cells by EPTT method; format: cell-based; settings: chlorocebus sabaeus
CHO = test: Cytotoxicity against CHO cells after 48 hrs; format: cell-based, Cricetulus griseus; settings: chinese hamster
HeLa [1] = test: Cytotoxicity against human HeLa cells after 48 hrs by MTT assay; format: functional
[2] = Cytotoxicity against bovine Bon-Fib cells after 48 hrs by MTT assay; format: cell-based, Bos taurus; settings: cattle
HeLa [3] = test: Cytotoxicity against human HeLa cells after 48 hrs; format: functional
HEp-2 [4] = test: Cytotoxicity against human Hep2 cells after 48 hrs by MTT assay; format: functional; settings: HEp-2, 48 h
[5] = Cytotoxicity against CHO cells after 48 hrs by MTT assay; format: cell-based, Cricetulus griseus; settings: chinese hamster
[6] = Cytotoxicity against bovine Bon-Fib cells after 48 hrs; format: cell-based, Bos taurus; settings: cattle
P388 = test: Antitumor activity against mouse P388 cells; format: functional, cell-based
Human alphaherpesvirus 1 = test: Antiviral activity against HSV1 infected in mouse P388 cells; format: functional, organism-based; settings: Human alphaherpesvirus 1, P388
HEp-2 [7] = test: Cytotoxicity against human Hep2 cells after 48 hrs; format: functional
L1210 = test: Cytotoxicity against mouse L1210 cells; format: functional, cell-based
KB = test: Cytotoxicity against human KB cells; format: functional, cell-based
[8] = Cytotoxicity against pig PS cells; format: cell-based, Sus scrofa; settings: read-out: ED50 (the source's name)

Row | SMILES | Activity (Human alphaherpesvirus 2) | CC100 (Vero) [µg/mL] | CC100 (CHO) [µg/mL] | CC50 (HeLa [1]) [µg/mL] | CC50 at 48 h [2] [µg/mL] | CC50 (HEp-2 [4]) [µg/mL] | CC50 at 48 h [5] [µg/mL] | CC100 [6] [µg/mL] | also measured
1 | CC(=O)O[C@@H]1OC2OC(=O)[C@@H]3CC[C@@H]4[C@@]5(C)CCCC(C)(C)[C@@H]5CC[C@]14[C@H]23 (stereo partly drawn) | 120 µg/mL | > 120 | – | – | – | – | – | – | –
2 | CO[C@H]1CC[C@]2(C)[C@H]3CCc4cocc4[C@]3(C)CC[C@H]2[C@@H]1C | 15 µg/mL | 28 | 36 | 13.6 (≈ 44.9 µM) | 17.9 (≈ 59.2 µM) | 10.4 (≈ 34.5 µM) | 13.3 (≈ 44 µM) | 36 | CC100 (HeLa [3]): 18 µg/mL
3 | COC(=O)[C@@H]1CC[C@@H]2[C@@]3(C)CCCC(C)(C)[C@@H]3CC[C@]23C(O)OC[C@H]13 (stereo partly drawn) | inactive | 30 | 30 | 37.6 (≈ 107 µM) | > 120 | 21.8 (≈ 62.3 µM) | 24.5 (≈ 69.9 µM) | > 120 | CC100 (HeLa [3]): 60 µg/mL
4 | CC1(C)CCC[C@]2(C)[C@H]3CCc4cocc4[C@]3(C)CC[C@@H]12 | 60 µg/mL | 120 | – | – | – | – | – | – | –
5 | C[C@]12CC(=O)[C@H](O)[C@](C)(CO)[C@@H]1CC[C@@]1(C)c3cocc3CC[C@H]21 [EPISPONGIADIOL] | – | – | – | – | – | – | – | – | IC50 (P388): 8 µg/mL (≈ 24.1 µM); IC50 (Human alphaherpesvirus 1): 12.5 µg/mL (≈ 37.6 µM)
6 | CC1(C)CCC[C@]2(C)[C@H]3CC[C@H]4C(=O)OC[C@H]4[C@]3(C=O)CC[C@@H]12 | 14 µg/mL | 28 | 20 | 14.2 (≈ 44.5 µM) | 19 (≈ 59.6 µM) | 9.56 (≈ 30 µM) | 13.2 (≈ 41.3 µM) | 40 | –
7 | CC1(C)CCC[C@]2(C)[C@H]3CC=C4C(=O)OC[C@H]4[C@]3(C)CC[C@@H]12 [ISOAGATHOLACTONE] | inactive | 40 | – | – | – | – | – | – | –
8 | CC1(C)C(=O)CC[C@]2(C)[C@H]3CCc4cocc4[C@]3(C)CC[C@@H]12 | inactive | 28 | 30 | – | – | – | – | 40 | –
9 | CC(=O)O[C@H]1OC(=O)[C@@H]2CC[C@@H]3[C@@]4(C)CCCC(C)(C)[C@@H]4CC[C@@]3(C=O)[C@H]12 | 4.5 µg/mL | 9 | 24 | 6.27 (≈ 16.7 µM) | 18.3 (≈ 48.6 µM) | 4.43 (≈ 11.8 µM) | 4.96 (≈ 13.2 µM) | 24 | CC100 (HEp-2 [7]): 12 µg/mL; CC100 (HeLa [3]): 12 µg/mL
10 | C[C@]12C[C@@H](O)C(=O)[C@](C)(CO)[C@@H]1CC[C@@]1(C)c3cocc3CC[C@H]21 [ISOSPONGIADIOL] | – | – | – | – | – | – | – | – | IC50 (P388): 5 µg/mL (≈ 15 µM); IC50 (Human alphaherpesvirus 1): 2 µg/mL (≈ 6.02 µM)
11 | CC1(C)CCC[C@]2(C)[C@H]3CC[C@@]4(O)C(=O)OC[C@H]4[C@]3(C)CC[C@@H]12 | 25 µg/mL | 50 | – | – | – | – | – | – | –
12 | CC(=O)O[C@H]1C=C2C(=O)OC[C@@]2(O)[C@]2(C)[C@@H](OC(C)=O)C[C@H]3C(C)(C)CCC[C@]3(C)[C@@H]12 [DORISENONE A] | – | – | – | – | – | – | – | – | IC50 (L1210): 0.21 µg/mL (≈ 0.483 µM); IC50 (KB): 0.22 µg/mL (≈ 0.506 µM)
13 | CC[C@]1(O)C[C@H]2CN(CCc3c([nH]c4ccccc34)[C@@](C(=O)OC)(c3cc4c(cc3OC)N(C=O)[C@H]3[C@@](O)(C(=O)OC)[C@H](OC(C)=O)[C@]5(CC)C=CCN6CC[C@]43[C@@H]65)C2)C1 [VINCRISTINE] | – | – | – | 0.05 (≈ 0.0606 µM) | 0.61 (≈ 0.739 µM) | 0.05 (≈ 0.0606 µM) | 1.15 (≈ 1.39 µM) | – | –
14 | CC1(C)CCC[C@]2(C)[C@H]3CC[C@H]4C(=O)OC5O[C@@H](O)[C@]3(CC[C@@H]12)[C@H]54 (stereo partly drawn) [DENDRILLOL- 1] | inactive | 8 | 13 | 14.8 (≈ 44.3 µM) | 18.9 (≈ 56.4 µM) | 3.46 (≈ 10.3 µM) | 5.1 (≈ 15.2 µM) | 13 | –
15 | CC1(C)CCC[C@]2(C)[C@H]3CC[C@H]4C(=O)OC[C@]3(CC[C@@H]12)[C@@H]4CO | 18.7 µg/mL | 37.5 | – | – | – | – | – | – | –
16 | CC1(C)CCC[C@]2(C)[C@H]3CC[C@H]4C(=O)OC5OC[C@H]4[C@@]53CC[C@@H]12 | 29 µg/mL | 58 | – | – | – | – | – | – | –
17 | CCCC(=O)O[C@@H]1C[C@H]2C(C)(C)CCC[C@]2(C)[C@H]2CC[C@H]3C(=O)O[C@H]4O[C@@H](O)[C@]21[C@H]43 | – | – | – | – | – | – | – | – | CC50 [8]: 6.5 µg/mL (≈ 15.5 µM)
18 | CO[C@@H]1OC2OC(=O)[C@@H]3CC[C@@H]4[C@@]5(C)CCCC(C)(C)[C@@H]5CC[C@]14[C@H]23 (stereo partly drawn) | 60 µg/mL | 120 | – | – | – | – | – | – | –
19 | CC(=O)OC[C@@H]1[C@H]2CC[C@@H]3[C@@]4(C)CCCC(C)(C)[C@@H]4CC[C@@]13COC2=O | 14 µg/mL | 28 | 36 | 16.5 (≈ 45.5 µM) | 15.9 (≈ 43.8 µM) | 10.1 (≈ 27.7 µM) | 21.5 (≈ 59.4 µM) | 36 | CC100 (HeLa [3]): 18 µg/mL
20 | CC1(C)CCC[C@]2(C)[C@H]3CC[C@]4(O)C(=O)OC[C@H]4[C@]3(C)CC[C@@H]12 | 28 µg/mL | 56 | – | – | – | – | – | – | –
21 | Nc1nc2c(ncn2COCCO)c(=O)[nH]1 [ACYCLOVIR] | 6 µg/mL | > 600 | – | – | – | – | – | – | –
22 | C[C@]12CC(=O)[C@@H](O)[C@](C)(CO)[C@@H]1CC[C@@]1(C)c3cocc3CC[C@H]21 [SPONGIADIOL] | – | – | – | – | – | – | – | – | IC50 (P388): 0.5 µg/mL (≈ 1.5 µM); IC50 (Human alphaherpesvirus 1): 0.25 µg/mL (≈ 0.752 µM)
